Test results from paper PMC12169608, “Peptidomimetic Phenoxymethyl Ketone Warheads as Potent Dual-Mode Inhibitors against SARS-CoV‑2 M^pro and Cathepsin” (Journal of Medicinal Chemistry, 2025).
Values after ≈ are worked out from the molar mass of the structure shown. Read-outs that look alike come from different tables or passages of the source.

Columns and labels:
[1] = target: T1, human cathepsin L (hCTSL) (Homo sapiens, UniProt P07711); assay: hCTSL biochemical assay
T1 construct: purchased R&D Systems

[2] = target: human cathepsin B (hCTSB) (Homo sapiens, UniProt P07858); assay: hCTSB biochemical assay
[3] = target: mouse cathepsin L (mCTSL) (Mus musculus, UniProt P06797); assay: mCTSL biochemical assay; details: read-out: pIC50 (mouse CTSL) (converted)
[4] = target: hamster CTSL (Mesocricetus auratus, UniProt Q812A7); assay: hamster CTSL biochemical assay
[5] = test system: luciferase-expressing VSV (ΔG) pseudotyped with Spike from SARS-CoV-2; assay: microbe, parasite or virus in culture; type: cell-based; details: Vesicular stomatitis virus, Vero C1008, read-out: Entry reporter assay pEC50 (converted)
[6] = test system: SARS-CoV-2; assay: microbe, parasite or virus in culture; type: cell-based
[7] = target: T2, Calpain-1 (Homo sapiens, UniProt P07384); assay: Protease panel: Calpain-1; type: biochemical
T2 construct: erythrocytes; tissue Eurofins Discovery (assay service); host or cells: human erythrocytes
T2 sequence (P07384 1-714): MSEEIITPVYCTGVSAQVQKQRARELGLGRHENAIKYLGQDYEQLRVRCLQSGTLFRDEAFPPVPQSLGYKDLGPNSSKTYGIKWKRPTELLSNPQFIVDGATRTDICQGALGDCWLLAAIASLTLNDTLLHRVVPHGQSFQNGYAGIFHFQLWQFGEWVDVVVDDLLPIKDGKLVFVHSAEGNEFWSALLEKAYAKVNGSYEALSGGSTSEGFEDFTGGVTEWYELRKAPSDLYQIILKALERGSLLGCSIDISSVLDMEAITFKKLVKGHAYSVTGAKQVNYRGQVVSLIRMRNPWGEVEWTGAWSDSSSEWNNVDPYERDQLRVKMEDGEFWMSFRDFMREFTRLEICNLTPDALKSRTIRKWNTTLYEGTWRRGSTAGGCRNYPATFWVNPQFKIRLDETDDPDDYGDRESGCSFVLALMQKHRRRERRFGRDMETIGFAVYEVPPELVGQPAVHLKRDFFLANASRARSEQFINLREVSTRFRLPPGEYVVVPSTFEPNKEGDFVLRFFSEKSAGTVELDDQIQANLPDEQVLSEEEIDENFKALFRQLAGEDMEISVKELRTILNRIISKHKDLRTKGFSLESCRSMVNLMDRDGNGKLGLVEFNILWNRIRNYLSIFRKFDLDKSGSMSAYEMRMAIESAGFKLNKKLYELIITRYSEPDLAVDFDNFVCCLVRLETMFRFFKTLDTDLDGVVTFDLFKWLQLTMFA
T2 sequence (P04632 1-268 partner): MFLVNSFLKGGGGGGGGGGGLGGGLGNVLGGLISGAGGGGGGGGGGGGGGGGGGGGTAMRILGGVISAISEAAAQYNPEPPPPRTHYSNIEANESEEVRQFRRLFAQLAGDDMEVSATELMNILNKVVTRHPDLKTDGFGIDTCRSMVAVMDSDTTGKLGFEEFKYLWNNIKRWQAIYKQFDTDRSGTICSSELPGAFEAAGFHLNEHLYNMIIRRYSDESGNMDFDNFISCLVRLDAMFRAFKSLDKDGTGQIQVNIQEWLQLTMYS

[8] = target: T3, Caspase 2 (Homo sapiens, UniProt P42575); assay: Protease panel: Caspase 2; type: biochemical
T3 construct: purchased Eurofins Discovery (assay service); host or cells: E. coli
T3 sequence (P42575 170-325 limits assumed): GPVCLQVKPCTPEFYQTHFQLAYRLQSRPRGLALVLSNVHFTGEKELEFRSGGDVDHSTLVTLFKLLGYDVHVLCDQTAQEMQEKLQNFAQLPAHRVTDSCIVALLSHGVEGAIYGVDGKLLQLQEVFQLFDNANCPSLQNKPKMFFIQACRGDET
T3 sequence (P42575 348-452 limits assumed): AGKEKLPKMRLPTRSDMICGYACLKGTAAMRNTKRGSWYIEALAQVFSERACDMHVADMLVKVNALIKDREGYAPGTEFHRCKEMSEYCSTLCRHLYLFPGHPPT

[9] = target: T4, Cathepsin D (Homo sapiens, UniProt P07339); assay: Protease panel: Cathepsin D; type: biochemical
T4 construct: Human liver; tissue Eurofins Discovery (assay service); host or cells: human liver

[10] = target: T5, Neutrophil Elastase 2 (Homo sapiens, UniProt P08246); assay: Protease panel: Neutrophil Elastase 2; type: biochemical
T5 construct: neutrophils; tissue Eurofins Discovery (assay service); host or cells: human neutrophils
T5 sequence (P08246 30-267): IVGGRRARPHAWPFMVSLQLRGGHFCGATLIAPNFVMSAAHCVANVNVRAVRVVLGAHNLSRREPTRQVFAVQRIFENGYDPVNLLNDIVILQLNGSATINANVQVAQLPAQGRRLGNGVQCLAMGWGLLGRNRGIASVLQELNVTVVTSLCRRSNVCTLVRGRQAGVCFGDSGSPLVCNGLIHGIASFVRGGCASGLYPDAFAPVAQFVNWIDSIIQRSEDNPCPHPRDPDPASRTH

[11] = in vitro; details: African green monkey
[12] = physchem; details: pH 7.4
[13] = physchem; details: pH 7.4; remark: listed apart in the source
[14] = in vitro; details: hamster, hepatocytes; for hepatocyte CLint at 2 h, 4 µM: CLint (hamster hepatocytes + ritonavir 4:1); for hepatocyte CLint at 2 h, 2 µM: CLint (hamster hepatocytes)
[15] = in vitro; details: human, hepatocytes
[16] = in vitro; details: human, microsomes, pH 7.4
[17] = test system: trypsin; assay: Protease panel: trypsin
[18] = Mouse hepatocyte stability; details: mouse, cryopreserved hepatocytes
[19] = Human hepatocyte stability; details: cryopreserved hepatocytes
[20] = Hamster hepatocyte stability; details: cryopreserved hepatocytes; for half-life at 2 h, 2 µM: t1/2 (hamster hepatocytes), without ritonavir
[21] = Hamster liver microsomal stability; details: microsomes, pH 7.4
[22] = Severe acute respiratory syndrome coronavirus 2, Vero C1008, read-out: SARS-CoV-2 CPE reduction assay pEC50 (converted)
[23] = % remaining at 120 min (hamster hepatocytes, compound/ritonavir 1:1)
[24] = % remaining at 120 min (hamster hepatocytes, compound/ritonavir 2:1)
[25] = CLint (hamster hepatocytes, compound/ritonavir 1:1)
[26] = CLint (hamster hepatocytes, compound/ritonavir 2:1)
[27] = t1/2 (hamster hepatocytes, compound/ritonavir 1:1)
[28] = t1/2 (hamster hepatocytes, compound/ritonavir 2:1)

T1 sequence (P07711 114-333): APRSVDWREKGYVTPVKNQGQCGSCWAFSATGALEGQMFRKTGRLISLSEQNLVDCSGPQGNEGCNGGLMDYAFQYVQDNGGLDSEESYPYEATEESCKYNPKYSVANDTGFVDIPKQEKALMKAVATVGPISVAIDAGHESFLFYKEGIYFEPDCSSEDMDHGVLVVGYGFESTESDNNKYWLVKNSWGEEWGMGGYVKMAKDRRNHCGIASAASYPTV
T4 sequence (P07339 65-412): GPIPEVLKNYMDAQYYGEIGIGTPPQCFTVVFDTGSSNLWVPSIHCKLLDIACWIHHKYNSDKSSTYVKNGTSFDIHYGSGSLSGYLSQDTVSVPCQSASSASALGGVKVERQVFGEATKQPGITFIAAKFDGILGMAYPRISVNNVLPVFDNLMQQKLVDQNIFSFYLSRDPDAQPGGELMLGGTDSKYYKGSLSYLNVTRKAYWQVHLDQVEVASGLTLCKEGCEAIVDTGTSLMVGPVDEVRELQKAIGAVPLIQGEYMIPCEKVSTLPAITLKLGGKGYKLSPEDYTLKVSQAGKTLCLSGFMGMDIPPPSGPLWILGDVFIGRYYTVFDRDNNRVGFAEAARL
mouse cathepsin L (mCTSL), sequence (P06797 114-334): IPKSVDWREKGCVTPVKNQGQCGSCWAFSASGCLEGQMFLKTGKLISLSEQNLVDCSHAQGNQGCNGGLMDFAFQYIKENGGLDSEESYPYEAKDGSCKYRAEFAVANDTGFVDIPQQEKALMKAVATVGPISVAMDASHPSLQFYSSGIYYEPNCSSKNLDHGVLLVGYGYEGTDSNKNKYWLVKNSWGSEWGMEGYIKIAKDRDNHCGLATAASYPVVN
hamster CTSL, sequence (Q812A7 entry or part of it): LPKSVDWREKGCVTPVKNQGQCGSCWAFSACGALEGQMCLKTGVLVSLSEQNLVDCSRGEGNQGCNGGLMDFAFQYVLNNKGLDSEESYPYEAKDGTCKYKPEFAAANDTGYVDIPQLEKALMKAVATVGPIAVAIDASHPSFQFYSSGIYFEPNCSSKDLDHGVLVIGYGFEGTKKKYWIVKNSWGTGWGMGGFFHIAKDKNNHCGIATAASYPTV

| SMILES | hCTSL biochemical assay pIC50 [1] | hCTSB biochemical assay pIC50 [2] | IC50 [3] [µM] | pIC50 (hamster CTSL) [4] | EC50 [5] [µM] | EC50 [6, 22] [µM] | inhibition at 10 µM [7] [%] | inhibition at 10 µM [8] [%] | inhibition at 10 µM [9] [%] | inhibition at 10 µM [10] [%] | CC50 [11] [µM] | logD at 1 h [12] | solubility kinetic at 24 h [13] [µM] | remaining at 2 h, 1 µM [14, 23] [%] | remaining at 2 h, 1 µM [14, 24] [%] | hepatocyte CLint at 2 h, 4 µM [14] [µL/min/1e6 cells] | hepatocyte CLint at 2 h, 2 µM [14] [µL/min/1e6 cells] | hepatocyte CLint at 1 µM [14, 25] [µL/min/1e6 cells] | hepatocyte CLint at 1 µM [14, 26] [µL/min/1e6 cells] | half-life at 1 µM [14, 27] [min] | also measured |
| --- | --- | --- | --- | --- | --- | --- | --- | --- | --- | --- | --- | --- | --- | --- | --- | --- | --- | --- | --- | --- | --- |
| CC(C)(O)c1c(F)c(F)c(OCC(=O)[C@H](C[C@@H]2CCNC2=O)NC(=O)[C@@H]2[C@@H]3[C@H](CN2C(=O)[C@@H](NC(=O)C(F)(F)F)C(C)(C)C)C3(C)C)c(F)c1F [compound 14, (1R,2S,5S)-3-((S)-3,3-Dimethyl-2-(2,2,2-trifluoroacetamido)butanoyl)-6,6-dimethyl-N-((S)-3-oxo-1-((S)-2-oxopyrrolidin-3-yl)-4-(2,3,5,6-tetrafluoro-4-(2-hydroxypropan-2-yl)phenoxy)butan-2-yl)-3-azabicyclo[3.1.0]hexane-2-carboxamide] | < 4.30 | < 4.30 | > 50.1 | 4.67 ± 0.33 | > 30.2 | 0.0398 | -7 | 7 | -23 | 4 | > 0.501 | 2.52 | 77.2 (≈ 57 µg/mL) | 28.8 | 4.42 | 44.7 | 62.1 | 9.3 | 25.4 | 74.5 | hCTSL activity (in words) ([1]; biochemical assay): no hCTSL and hCTSB activity was observed; hCTSB activity (in words) ([2]; biochemical assay): no hCTSL and hCTSB activity was observed; half-life at 1 µM [14, 28]: 27.2 min; hepatocyte CLint at 2 h, 2 µM [15]: 6.6 µL/min/1e6 cells; microsomal CLint [16]: 40 µL/min/mg; remaining at 1 h [16]: 30.2%; Trypsin inhibition at 10 μM [17]: 10.2 ± 3.3%; half-life at 1 µM [18]: 15.5 min; half-life at 2 h, 2 µM [19]: 105 min; half-life at 2 h, 2 µM [20]: 11.2 min; half-life at 1 µM ([20]; with ritonavir 0.25 µM (compound/ritonavir 4:1), t1/2 (hamster hepatocytes + ritonavir 4:1), compound/ritonavir 4:1): 15.5 min; half-life at 1 µM [21]: 1.73 min |
| COc1cccc2[nH]c(C(=O)N[C@@H](Cc3cccc(F)c3)C(=O)N[C@@H](C[C@@H]3CCNC3=O)C(=O)COc3c(F)c(F)c(CO)c(F)c3F)cc12 [compound 1, N-((S)-3-(3-Fluorophenyl)-1-oxo-1-(((S)-3-oxo-1-((S)-2-oxopyrrolidin-3-yl)-4-(2,3,5,6-tetrafluoro-4-(hydroxymethyl)phenoxy)butan-2-yl)amino)propan-2-yl)-4-methoxy-1H-indole-2-carboxamide] | 7.54 | 6.36 | 0.0832 | 8.34 ± 0.09 | 2.51 | 0.129 | 3 | 11 | 8 | 2 | > 1 | 1.65 | 18 (≈ 12.6 µg/mL) | 2.51 | 0.56 | 77.1 | 87.6 | 31.4 | 48.1 | 22.1 | EC50 ([6]; Severe acute respiratory syndrome coronavirus 2, Vero C1008, read-out: EC50 (CPE)): 0.13 µM; half-life at 2 h, 4 µM ([14]; t1/2 (hamster hepatocytes + ritonavir 4:1)): 9 min; half-life at 1 µM [14, 28]: 14.4 min; hepatocyte CLint at 2 h, 2 µM [15]: 12.5 µL/min/1e6 cells; microsomal CLint [16]: 350 µL/min/mg; remaining at 1 h [16]: 0%; Trypsin inhibition at 10 μM [17]: -3.4 ± 9.0%; half-life at 1 µM [18]: 9.3 min; half-life at 2 h, 2 µM [19]: 55.5 min; half-life at 2 h, 2 µM [20]: 7.9 min; half-life at 1 µM [21]: 0.58 min |
